In ChEMBL document CHEMBL1155282, “Design, synthesis and preliminary biological evaluation of N-hydroxy-4-(3-phenylpropanamido)benzamide (HPPB) derivatives as novel histone deacetylase inhibitors” (Eur J Med Chem, 2009) one finds IC50 and Activity data, which are given here for 20 molecules.

In test [1] the target is Histone deacetylase (HDAC1 and HDAC2) (Homo sapiens, UniProt Q13547+Q92769). In words: Inhibition of HDAC1/HDAC2 from human Hela nuclear extracts using [3H]acetylated histone peptide by colorimetry. Format: protein assay.
The test system of test [2] is A549. In words: Antiproliferative activity against human A549 cells after 2 days by MTT assay. Format: functional, cell-based. Particulars: A549, 48 h. (In general: Formazan colour is commonly taken as a measure of viable cells.)
The subject of test [3] is HCT-116. In words: Antiproliferative activity against human HCT116 cells after 2 days by MTT assay. Format: functional, cell-based. Conditions: HCT-116, 48 h.
Test [4] concerns HCT-116. The test can be described thus: Cell cycle arrest in human HCT116 cells assessed as accumulation at S phase at 1 umol/L by flow cytometry. Format: functional. For orientation: Flow cytometry measures light scatter and fluorescence of single cells or particles in a stream.
The subject of test [5] is HCT-116. The test can be described thus: Cell cycle arrest in human HCT116 cells assessed as accumulation at G2 phase at 1 umol/L by flow cytometry. Format: functional.
Test [6] has as its system HCT-116. In words: Cell cycle arrest in human HCT116 cells assessed as accumulation at G1 phase at 1 umol/L by flow cytometry. Format: functional.

For the molecule `CCC(C)Oc1ccc(CCC(=O)Nc2ccc(C(=O)NO)cc2)cc1OC` (centres undefined), the concentration for half-maximal inhibition (IC50) (commonly the concentration that inhibits the measured activity by half) in test [1] amounted to 2200 nM.

The molecule `COc1cc(CCC(=O)Nc2ccc(C(=O)NO)cc2)ccc1OCc1ccccc1C` yielded an IC50 in test [1] of 1800 nM.

For `COc1cc(CCC(=O)Nc2ccc(C(=O)NO)cc2)ccc1OCc1ccccc1Br`, the half-inhibitory concentration (IC50) in test [2] came to 600 nM; in test [1], 600 nM; in test [3] it was 100 nM.

In the case of `COc1cc(CCC(=O)Nc2ccc(C(=O)NO)cc2)ccc1OCc1cccc(Br)c1`, the concentration for half-maximal inhibition (IC50) in test [1] was found to be 900 nM.

`COc1cc(CCC(=O)Nc2ccc(C(=O)NO)cc2)ccc1OCCC(C)C` returned a half-inhibitory concentration (IC50) in test [1] of 2900 nM.

`COc1cc(CCC(=O)Nc2ccc(C(=O)NO)cc2)ccc1OCc1ccc(C)cc1`: the IC50 in test [1] turned out to be 1500 nM.

In test [1], `COc1cc(CCC(=O)Nc2ccc(C(=O)NO)cc2)ccc1OCc1ccccc1Cl` showed an IC50 of 1200 nM.

In test [1], `COc1cc(CCC(=O)Nc2ccc(C(=O)NO)cc2)ccc1OCc1ccc(Cl)cc1` had a half-inhibitory concentration (IC50) of 1400 nM.

For `COc1cc(CCC(=O)Nc2ccc(C(=O)NO)cc2)ccc1OC1CCCC1`, the half-maximal inhibitory concentration (IC50) in test [1] was 4000 nM.

`COc1cc(CCC(=O)Nc2ccc(C(=O)NO)cc2)ccc1OCc1cccc(C)c1`: the IC50 in test [1] stood at 2600 nM.

The molecule `COc1cc(CCC(=O)Nc2ccc(C(=O)NO)cc2)ccc1OCc1ccc(Br)cc1` yielded a concentration for half-maximal inhibition (IC50) in test [1] of 800 nM.

Take `COc1ccc(CCC(=O)Nc2ccc(C(=O)NO)cc2)cc1OC`: the IC50 in test [1] came out at 3300 nM.

For the molecule `CCCCOc1ccc(CCC(=O)Nc2ccc(C(=O)NO)cc2)cc1OC`, the IC50 in test [1] came out at 1600 nM.

`COc1cc(CCC(=O)Nc2ccc(C(=O)NO)cc2)ccc1OCc1ccccc1`: the results for the IC50 in test [2], in test [1] and in test [3] were 600 nM, 700 nM and 120 nM, respectively.

Take `COc1cc(CCC(=O)Nc2ccc(C(=O)NO)cc2)ccc1OCc1cccs1`: the Activity in test [4] is reported as 24.33%; in test [5] it was 47.16%; in test [6], 28.51%. The concentration for half-maximal inhibition (IC50) in test [2] turned out to be 80 nM; in test [1], 300 nM; in test [3], 30 nM.

As to `O=C(CCc1ccc2c(c1)OCO2)Nc1ccc(C(=O)NO)cc1`, the Activity in test [4] was 34.11%; in test [5] it was 48.8%; in test [6], 17.09%. Also, the IC50 was 500 nM in test [2], 400 nM in test [1] and 60 nM in test [3].

In test [1], `CCCOc1ccc(CCC(=O)Nc2ccc(C(=O)NO)cc2)cc1OC` gave a half-maximal inhibitory concentration (IC50) of 1700 nM.

On to `COc1cc(CCC(=O)Nc2ccc(C(=O)NO)cc2)ccc1OCc1ccccn1`, for which, in test [1], the half-inhibitory concentration (IC50) came out at 3900 nM.

`COc1cc(CCC(=O)Nc2ccc(C(=O)NO)cc2)ccc1OCc1cccc(Cl)c1` returned a concentration for half-maximal inhibition (IC50) in test [1] of 1600 nM.

With `CCOc1ccc(CCC(=O)Nc2ccc(C(=O)NO)cc2)cc1OC`, the concentration for half-maximal inhibition (IC50) in test [1] was found to be 2900 nM.
